Source: patent US20090028871A1, “NOVEL USE OF LIGANDS SPECIFIC TO FEX-2 POLYPEPTIDE” (KYUNGPOOK NATIONAL UNIVERSITY INDUSTRY-ACADEMIC COOPERATION …, priority 2004, published 2009)

Key:
L/FEX-2 cells = test: Inhibition of binding and phagocytosis of aged red blood cells by L/FEX-2 cells; assay type: cell-based, mouse; settings: L/FEX-2 cells pre-cultured with 100 μM, 37° C., 30 minutes; relative to control group taken as 100%
Protocol: Whether or not aged red blood cells are bound and phagocytosed by the L/FEX-2 cells prepared in Example <1-2> and L/Mock cells as a control group was examined. For this purpose, normal red blood cells obtained from normal adult volunteers were first diluted with PBS to a hematocrit concentration of 20% and cultured at 37° C. for 4 days, thus preparing aged red blood cells. Then, each of L/FEX-2 cells, L/Mock cells and normal L cells was cultured to a confluent 6-well plate comprising Dulbecco's modified Eagle's medium (DMEM). To the culture media, aged red blood cells and normal red blood cells were added to a hematocrit concentration of 1% and cultured at 37° C. for one hour. Then, the cells were washed five times with PBS, and observed for the binding of the aged red blood cells and normal red blood cells using an optical microscope. The number of red blood cells bound to 100 randomly selected L/FEX-2 cells was counted and averaged. To analyze phagocytosis, the cells were washed with PBS and treated with water for 10 seconds to completely dissolve undigested cells. Then, the L/FEX-2 cells were stained using the Diff quick staining kit (IMEM Ins., San Marcos, Calif., USA), and five sites from the stained cells were randomly selected and counted for the number of cells which have phagocytosed red blood cells phagocytosed. Binding and phagocytosis indexes (%) were expressed as the percentages of cells having red blood cells bound and phagocytosed thereby, relative to the entire L/FEX-2 cells.
To the L/FEX-2 cells prepared in Example <1-2>, 100 μg/ml of the human FEX-2 monoclonal antibody (5G3) was added and the mixture was pre-cultured at 37° C. for one hour. As a control group, mouse immunoglobulin (IgG1) in place of the FEX-2 monoclonal antibody was used. […] After completion of the culture, the binding and phagocytosis of the aged red blood cells were analyzed in the same manner as in Example <4-1>. In this regard, the binding and phagocytosis of the aged red blood cells were expressed as inhibition percentage relative to the case of L/FEX-2 cells, which have not been pre-cultured with the antibody.
Whether the binding and phagocytosis of red blood cells by the L/FEX-2 cells are inhibited, it was examined by pre-culturing the L/FEX-2 cells with each of the PS liposome, PI liposome, PG liposome, PE liposome, PA liposome and PC liposome prepared in Example <5-3> and then additionally culturing the pre-cultured cells with aged red blood cells. […] After completion of the culture, the binding and phagocytosis of the aged red blood cells were analyzed in the same manner as in. […] The binding and phagocytosis of aged red blood cells were expressed as values relative to the control group taken as 100%. […]

[1] = tested on: premyelomonocytic leukemic U937 cells; test: Induction of apoptosis in U937 cells (annexin V flow cytometry); assay type: cell-based, human; settings: 100 ng/ml, 4 hours
Protocol: For this purpose, the apoptosis of human leukemic Jurkat T cells (Korean cell line bank) and premyelomonocytic leukemic U937 cells (Korean cell line bank) was induced. The cells were cultured in an RPMI 1640 medium comprising 10% fetal bovine serum. The induction of apoptosis of the Jurkat T cells was performed according to a known method by inoculating the Jurkat T cells in a medium comprising 100 ng/ml of an anti-Fas antibody (CH-11) and culturing the inoculated cells for 6 hours (Oka, K. et al., Proc Natl Acad Sci USA, 95:9535-40, 1998). Also, the induction of apoptosis of the U937 cells was performed according to a known method by inoculating the U937 cells in a medium comprising 100 ng/ml of ectoposide and culturing the inoculated cells for 4 hours (Bave, U., et. al., J Immunol 165:3519-26, 2000). The degree of apoptosis of the cells was determined by measuring the amount of phosphatidylserine expressed on the cell surface, by flow cytometry in the same manner as in Example <5-1> using the annexin V apoptosis detection kit (Santacruz) according to the manufacturer's instruction.

Compound	binding of aged red blood cells (L/FEX-2 cells)	phagocytosis of aged red blood cells (L/FEX-2 cells)	apoptosis of the cells (phosphatidylserine on cell surface, annexin V) [1]
N[C@H](COP(=O)(O)O)C(=O)O [PDS, phospho-D-serine]	no significant effect	no significant effect	–
N[C@@H](COP(=O)(O)O)C(=O)O [PLS, phospho-L-serine]	significant inhibition	significant inhibition	–
COc1cc([C@@H]2c3cc4c(cc3[C@@H](O[C@@H]3O[C@@H]5CO[C@@H](C)O[C@H]5[C@H](O)[C@H]3O)[C@H]3COC(=O)[C@H]23)OCO4)cc(OC)c1O [ectoposide]	–	–	induced
